Common to all, as to assay type: cell-based
One test concerns Bacterium LMB64. The experiment in a line: Antibiotic sensitivity of bacterium LMB64, zone of inhibition. Conditions: disc load given with each antibiotic; for Zone of inhibition diameter (mm) LB ½: LB ½ dilution medium; for Zone of inhibition diameter (mm) LB ⅕: LB ⅕ dilution medium; for Zone of inhibition diameter (mm) R3: R3 medium.
A further test relates to TSLP. The experiment in a line: PCR array, NHEK atopic dermatitis phenotype: TSLP. Conditions: Homo sapiens, read-out: percentage of inhibition TSLP. On the procedure:
(§1) The study was carried out on normal human epidermal keratinocytes (NHEK, K-SFM culture medium) in the context of the induction of an atopic dermatitis phenotype.

In a further test the test system is IL-1α. The experiment in a line: PCR array, NHEK atopic dermatitis phenotype: IL-1α. The following applies: Homo sapiens, read-out: percentage of inhibition IL-1α. The method, then:
as §1

For another test, the system named is IL-18. The experiment in a line: PCR array, NHEK atopic dermatitis phenotype: IL-18. Conditions: Homo sapiens, read-out: percentage of inhibition IL-18. The method, then: as §1
Another test concerns IFN-β1. Description: PCR array, NHEK atopic dermatitis phenotype: IFN-β1. Conditions: Homo sapiens, read-out: percentage of inhibition IFN-β1. On the procedure: as §1
The next test concerns IL-8. The experiment in a line: PCR array, NHEK atopic dermatitis phenotype: IL-8. Conditions: Homo sapiens, read-out: percentage of inhibition IL-8. The method, then: as §1
In another test the test system is MlP-1α. The experiment in a line: PCR array, NHEK atopic dermatitis phenotype: MlP-1α. Conditions: Homo sapiens, read-out: percentage of inhibition MlP-1α. On the procedure:
as §1

A further test concerns RANTES. Description: PCR array, NHEK atopic dermatitis phenotype: RANTES. Conditions: Homo sapiens, read-out: percentage of inhibition RANTES. The method, then: as §1
In a further test the test system is MIP-3α. Description: PCR array, NHEK atopic dermatitis phenotype: MIP-3α. The following applies: Homo sapiens, read-out: percentage of inhibition MIP-3α. On the procedure: as §1
The next test has as its system MDC. The experiment in a line: PCR array, NHEK atopic dermatitis phenotype: MDC. The following applies: Homo sapiens, read-out: percentage of inhibition MDC. The method, then: as §1
The test system of another test is Skinkine. Description: PCR array, NHEK atopic dermatitis phenotype: Skinkine. The following applies: Homo sapiens, read-out: percentage of inhibition Skinkine. The method, then: as §1
The subject of a further test is IL-4-R. The experiment in a line: PCR array, NHEK atopic dermatitis phenotype: IL-4-R. Conditions: Homo sapiens, read-out: percentage of inhibition IL-4-R. The method, then:
as §1

A further test has as its system RARRES3. The experiment in a line: PCR array, NHEK atopic dermatitis phenotype: RARRES3. Conditions: Homo sapiens, read-out: percentage of inhibition RARRES3. The method, then:
as §1

As to `[H]/N=C(/N)N[C@H]1[C@H](O)[C@@H](O)[C@H](O[C@@H]2O[C@@H](C)[C@](O)(C=O)[C@H]2O[C@@H]2O[C@@H](CO)[C@H](O)[C@@H](O)[C@@H]2NC)[C@@H](N/C(N)=N\[H])[C@@H]1O` [Streptomycin], in the test with Bacterium LMB64, the “Zone of inhibition diameter (mm) LB ½” value turned out to be 25 mm, the “Zone of inhibition diameter (mm) LB ⅕” value is reported as 24 mm and the “Zone of inhibition diameter (mm) R3” value worked out at 25 mm.
With Penicillin, in the test on Bacterium LMB64, the “Zone of inhibition diameter (mm) LB ½” value was found to be 26 mm, the “Zone of inhibition diameter (mm) LB ⅕” value was 20 mm and the “Zone of inhibition diameter (mm) R3” value is given as 21 mm.
For `CN[C@H](CC(C)C)C(=O)N[C@H]1C(=O)N[C@@H](CC(N)=O)C(=O)N[C@H]2C(=O)N[C@H]3C(=O)N[C@H](C(=O)N[C@H](C(=O)O)c4cc(O)cc(O)c4-c4cc3ccc4O)[C@H](O)c3ccc(c(Cl)c3)Oc3cc2cc(c3O[C@@H]2O[C@H](CO)[C@@H](O)[C@H](O)[C@H]2O[C@H]2C[C@](C)(N)[C@H](O)[C@H](C)O2)Oc2ccc(cc2Cl)[C@H]1O` [Vancomycin], in that order: 21 mm, 21 mm and 20 mm.
For `CN(C)[C@@H]1C(O)=C(C(N)=O)C(=O)[C@@]2(O)C(O)=C3C(=O)c4c(O)cccc4[C@@](C)(O)[C@H]3C[C@@H]12` [Tetracycline], in the test on Bacterium LMB64, the “Zone of inhibition diameter (mm) LB ½” value came to 25 mm, the “Zone of inhibition diameter (mm) LB ⅕” value was determined as 20 mm and the “Zone of inhibition diameter (mm) R3” value is reported as 30 mm.
As to `O=C(O)c1cn(C2CC2)c2cc(N3CCNCC3)c(F)cc2c1=O` [Ciprofloxacin], in the test with Bacterium LMB64, the “Zone of inhibition diameter (mm) LB ⅕” value is recorded as 34 mm and the “Zone of inhibition diameter (mm) R3” value is reported as 38 mm.
On to `CC1(C)S[C@@H]2[C@H](NC(=O)[C@H](N)c3ccccc3)C(=O)N2[C@H]1C(=O)O` [Ampicillin], for which, in the test on Bacterium LMB64, the “Zone of inhibition diameter (mm) LB ½” value was determined as 28 mm, the “Zone of inhibition diameter (mm) LB ⅕” value is recorded as 29 mm and the “Zone of inhibition diameter (mm) R3” value is given as 29 mm.
`CO[C@H]1/C=C/O[C@@]2(C)Oc3c(C)c(O)c4c(O)c(c(/C=N/N5CCN(C)CC5)c(O)c4c3C2=O)NC(=O)/C(C)=C\C=C\[C@H](C)[C@H](O)[C@@H](C)[C@@H](O)[C@@H](C)[C@H](OC(C)=O)[C@@H]1C` [Rifampicin]: in the test with Bacterium LMB64, the “Zone of inhibition diameter (mm) LB ½” value came out at 19 mm, the “Zone of inhibition diameter (mm) LB ⅕” value was found to be 15 mm and the “Zone of inhibition diameter (mm) R3” value is recorded as 20 mm.
Consider Polymyxin B, for which, in the test on Bacterium LMB64, the “Zone of inhibition diameter (mm) LB ½” value worked out at 15 mm, the “Zone of inhibition diameter (mm) LB ⅕” value was found to be 13 mm and the “Zone of inhibition diameter (mm) R3” value was 11 mm.
For `C[C@@H]1C[C@H]2[C@@H]3CCC4=CC(=O)C=C[C@]4(C)[C@@]3(F)[C@@H](O)C[C@]2(C)[C@@]1(O)C(=O)CO` [Dexamethasone], the inhibition (as a rule, the percentage by which the read-out fell short of the control) at 2 µM in the test on TSLP was 91%; in the test on IL-1α, 54%; in the test with IL-18 it was 44%; in the test with IFN-β1, 49%; in the test with IL-8 it was 75%; with MlP-1α, 76%. Besides, the inhibition at 2 µM turned out to be 12% in the test with RANTES; 40% with MIP-3α; 45% with MDC; 59% with Skinkine; 75% in the test with IL-4-R; 28% with RARRES3.
As to `O=C(N[C@H](CO)[C@H](O)c1ccc([N+](=O)[O-])cc1)C(Cl)Cl` [Chloramphenicol], in the test with Bacterium LMB64, the “Zone of inhibition diameter (mm) LB ½” value is on record as 26 mm, the “Zone of inhibition diameter (mm) LB ⅕” value was 24 mm and the “Zone of inhibition diameter (mm) R3” value came out at 29 mm.
Taken in the same sequence, the figures for `NC[C@H]1O[C@H](O[C@H]2[C@H](O)[C@@H](O[C@H]3O[C@H](CO)[C@@H](O)[C@H](N)[C@H]3O)[C@H](N)C[C@@H]2N)[C@H](O)[C@@H](O)[C@@H]1O` [Kanamycin] were 30 mm, 27 mm and 27 mm.

Values taken from patent US9662357B2, “Bacterium and extracts of said bacterium and the use of same in dermatology” (PIERRE FABRE DERMO-COSMETIQUE, priority 2010, dated 2017).
